Counter-ions that a name gives are not always drawn.
Legend:
K562R cells = conditions: K562R over-express the Src family kinase LYN; cited from earlier work
[1] = tested on: mice with CML-like disease (Prkch KD); assay: Prkch knockdown mice with CML-like disease; type: in vivo, mouse; conditions: IM from day 14
Method: Mice with CML-like disease were generated as previously described (22). Briefly, wild-type male C57BL/6 mice 6-8 weeks of age (Jackson Laboratory) were tail-vein injected with 5-fluorouracil (200 mg/kg; Sigma) for 4 days to enrich for slow-cycling hematopoietic stem cells. At day 5, bone marrow cells were harvested and pre-incubated overnight in the presence of IL-3, IL-6 and SCF (all from PeproTech) to increase infection efficiency. At days 6 and 7, bone marrow cells were infected with a BCR-ABL retrovirus by co-sedimentation method at 3,000 rpm for 90 min at room temperature. Four hours after the second round of retroviral infection, 0.5×10^6 bone marrow cells were injected into the tail vein of syngeneic recipient mice that had been lethally irradiated (twice at 550 R). Mice were randomly allocated to each group after bone marrow transplantation.

[2] = tested on: RAF/MEK/ERK signaling (phosphorylated ERK1/2); assay: Immunoblot analysis of RAF/MEK/ERK signaling in K562 cell lines; type: cell-based, human
Method: Cells were harvested and lysed with RIPA buffer (10×, 200 mM HEPES pH 6.8, 1400 mM NaCl, 25 mM MgCl2, 25 mM CaCl2, 10% NP40, and 5% sodium deoxycholate) plus phosphatase (Sigma) and protease inhibitors (Roche). […] The PKCη antibody (Santa Cruz Technology; C-15) was diluted in 5% skim milk at 1:150. The β-actin antibody (Sigma; AC-74) diluted in 5% BSA at 1:5000. Blots were developed with Pico/Femato super signal (Sigma) and visualized using autoradiography or a Bio-Rad ChemiDoc MP Imaging System.

IMSG KD K562 cells = conditions: representative IMSG KD K562 cell lines expressing PRKCH shRNA
[3] = tested on: phosphorylated ERK1/2 in CML progenitor and stem cells; assay: Intracellular phosphorylated-ERK1/2 analysis by FACS; type: cell-based, mouse; conditions: 5 μM IM or 10 nM trametinib, 3 hours
Method: For intracellular phosphorylated-ERK1/2 analysis, bone marrow cells isolated from leukemic mice were treated with 5 μM IM or 10 nM trametinib for 3 hours, fixed in 4% paraformaldehyde (Electron Microscopy Sciences) for 10 min at 37° C., washed twice with wash buffer (0.05% BSA in 1×PBS), spun down, and resuspended in 100 μl wash buffer. Ice-cold methanol (900 μl) was added to the cells while gently vortexing to reach a final 90% for permeabilization. Samples were incubated on ice for 30 min, washed twice, and resuspended in 100 μl wash buffer. IgG control antibody (Cell signaling) was added (at 1:100 dilution) for 10 min at room temperature for blocking, followed by addition of 2 μl conjugated IgG control (Pacific Blue-conjugated IgG^XP Rabbit mAb, Cell Signaling) or phospho-ERK antibody (Pacific Blue-conjugated P-p44/42(T202/Y204)^XP Rabbit mAb, Cell Signaling). Samples were gently mixed and incubated at room temperature for 1 hour. Thirty minutes after the start of the incubation, a cocktail of primary antibodies for cell surface markers (described above) was added, incubated for a further 30 min, washed once with PBS, and incubated with the secondary antibody for 20 min on ice. Samples were then washed once with wash buffer prior to FACS analysis.

Cc1ccc(NC(=O)c2ccc(CN3CCN(C)CC3)cc2)cc1Nc1nccc(-c2cccnc2)n1 [IM, imatinib mesylate]
sensitivity of K562R cells (K562R cells): resistant
survival of IM-treated mice after knockdown of Prkch [1]: markedly increased survival
phosphorylated MEK and ERK1/2 after IM treatment ([2]; K562/PRKCH cells): maintained high levels
phosphorylation of ERK1/2 following IM treatment ([2]; all IMSG KD K562 cell lines): sustained levels
phosphorylated-ERK1/2 levels after IM treatment ([2]; control K562 cells): substantial decrease
IM resistance after knockdown of PRKCH (IMSG KD K562 cells): abrogated the IM resistance
phosphorylated ERK1/2 in CML progenitor cells [3]: reduced levels of phosphorylated ERK1/2

Reference: patent US10428387B2, “Treating chronic myelogenous leukemia (CML)” (priority 2014, dated 2019)
